Results as given in patent US20250197372A1 (priority 2020, published 2025).

What follows are molecules tested against T1, recombinant alpha-glucosidase I (human full-length glucosidase I, Glu 1) (Homo sapiens, UniProt Q13724) (assay: Alpha-glucosidase I assay (Amplex Red glucose detection, synthetic trisaccharide substrate)). Settings: not given.
T1 construct: 6-His (C); made in house; host or cells: HEK-293T cells transduced with BacMam virus (virus raised in Sf9)
T1 sequence (Q13724 1-837): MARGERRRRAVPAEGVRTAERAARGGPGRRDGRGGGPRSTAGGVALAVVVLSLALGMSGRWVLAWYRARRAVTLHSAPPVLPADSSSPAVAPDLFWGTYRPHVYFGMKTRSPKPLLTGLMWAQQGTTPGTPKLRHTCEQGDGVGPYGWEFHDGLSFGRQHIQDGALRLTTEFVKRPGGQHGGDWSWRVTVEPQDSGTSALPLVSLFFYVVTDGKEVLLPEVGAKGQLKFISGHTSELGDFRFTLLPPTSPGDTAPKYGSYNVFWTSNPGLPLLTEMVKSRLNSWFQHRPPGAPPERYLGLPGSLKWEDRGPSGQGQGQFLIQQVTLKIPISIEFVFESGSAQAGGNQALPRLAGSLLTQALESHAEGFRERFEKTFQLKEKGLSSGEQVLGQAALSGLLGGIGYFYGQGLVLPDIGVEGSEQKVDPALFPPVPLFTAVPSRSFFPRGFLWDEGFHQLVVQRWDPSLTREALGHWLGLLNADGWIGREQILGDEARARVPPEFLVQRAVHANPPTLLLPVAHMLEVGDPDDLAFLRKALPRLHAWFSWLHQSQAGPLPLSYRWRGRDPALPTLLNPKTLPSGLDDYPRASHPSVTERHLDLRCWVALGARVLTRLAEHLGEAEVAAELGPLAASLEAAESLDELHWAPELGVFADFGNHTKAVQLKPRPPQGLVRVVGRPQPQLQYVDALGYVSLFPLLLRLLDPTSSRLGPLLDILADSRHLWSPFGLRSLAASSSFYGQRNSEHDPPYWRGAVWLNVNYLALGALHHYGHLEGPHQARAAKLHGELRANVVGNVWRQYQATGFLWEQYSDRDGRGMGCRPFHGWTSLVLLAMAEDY
Assay type: biochemical
Method in brief: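 Compound dilution series incubated 60 min at 37° C with recombinant His-tagged human glucosidase I ([…]), after which trisaccharide substrate analog was added for 90 min at 37° C. Reaction quenched with 1.5M Tris pH 8; D-glucose detected by Amplex Red fluorescence, 560/590 nm. 4-PL curve fit of percent inhibition gave IC50.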

Row | SMILES | IC50 [nM]
1 | CS(=O)(=O)c1cc(NCc2cccc(CN3C[C@H](O)[C@@H](O)[C@H](O)[C@H]3CO)c2)cc(-c2ncccn2)c1 [Compound 1041, (2R,3R,4R,5S)-2-(hydroxymethyl)-1-{[3-({[3-methanesulfonyl-5-(pyrimidin-2-yl)phenyl]amino}methyl)phenyl]methyl}piperidine-3,4,5-triol] | 17
2 | O=[N+]([O-])c1cc(N2CCOCC2)ccc1NCc1cccc(CN2C[C@H](O)[C@@H](O)[C@H](O)[C@H]2CO)c1 [Compound 1067, (2R,3R,4R,5S)-2-(hydroxymethyl)-1-{[3-({[4-(morpholin-4-yl)-2-nitrophenyl]amino}methyl)phenyl]methyl}piperidine-3,4,5-triol] | 99
3 | Cc1nc2cc(-c3ncccn3)ccc2n1CCCCCCN1C[C@H](O)[C@@H](O)[C@H](O)[C@H]1CO [Compound 1339, (2R,3R,4R,5S)-2-(hydroxymethyl)-1-{6-[2-methyl-5-(pyrimidin-2-yl)-1H-1,3-benzodiazol-1-yl]hexyl}piperidine-3,4,5-triol] | 78
4 | O=[N+]([O-])c1cc(CCO)ccc1NCCCCCCN1C[C@H](O)[C@@H](O)[C@H](O)[C@H]1CO [Compound 1292, (2R,3R,4R,5S)-1-(6-{[4-(2-hydroxyethyl)-2-nitrophenyl]amino}hexyl)-2-(hydroxymethyl)piperidine-3,4,5-triol] | 157

Same assay, conditions: Glucosidase 1; read-out: Glu 1 IC50

Row | SMILES | IC50 [nM]
5 | [N-]=[N+]=Nc1ccc(NCCc2nccc(CCN3C[C@H](O)[C@@H](O)[C@H](O)[C@H]3CO)n2)c([N+](=O)[O-])c1 [Compound 1188, (2R,3R,4R,5S)-1-[2-(2-{2-[(4-azido-2-nitrophenyl)amino]ethyl}pyrimidin-4-yl)ethyl]-2-(hydroxymethyl)piperidine-3,4,5-triol] | 762
6 | OC[C@@H]1[C@@H](O)[C@H](O)[C@@H](O)CN1CCCCCCNc1cc(-c2ncccn2)cc(C(F)(F)F)c1 [Compound 1131, (2R,3R,4R,5S)-2-(hydroxymethyl)-1-(6-{[3-(pyrimidin-2-yl)-5-(trifluoromethyl)phenyl]amino}hexyl)piperidine-3,4,5-triol] | 232
7 | OC[C@@H]1[C@@H](O)[C@H](O)[C@@H](O)CN1CCCCCCNc1cc(Cl)cc(CN2CCCO2)c1 [Compound 1183, (2R,3R,4R,5S)-1-[6-({3-chloro-5-[(1,2-oxazolidin-2-yl)methyl]phenyl}amino)hexyl]-2-(hydroxymethyl)piperidine-3,4,5-triol] | 154
8 | [N-]=[N+]=Nc1ccc(NCCc2cc(CCN3C[C@H](O)[C@@H](O)[C@H](O)[C@H]3CO)cs2)c([N+](=O)[O-])c1 [Compound 1179, (2R,3R,4R,5S)-1-[2-(5-{2-[(4-azido-2-nitrophenyl)amino]ethyl}thiophen-3-yl)ethyl]-2-(hydroxymethyl)piperidine-3,4,5-triol] | < 1
9 | COc1cc(-c2cnccn2)ccc1NCCCCCCN1C[C@H](O)[C@@H](O)[C@H](O)[C@H]1CO [Compound 1199, (2R,3R,4R,5S)-2-(hydroxymethyl)-1-(6-{[2-methoxy-4-(pyrazin-2-yl)phenyl]amino}hexyl)piperidine-3,4,5-triol] | 77
10 | OC[C@@H]1[C@@H](O)[C@H](O)[C@@H](O)CN1CCCCCCNc1cc(Cl)cc(-c2cnccn2)c1 [Compound 1196, (2R,3R,4R,5S)-1-(6-{[3-chloro-5-(pyrazin-2-yl)phenyl]amino}hexyl)-2-(hydroxymethyl)piperidine-3,4,5-triol] | 105
11 | [N-]=[N+]=Nc1ccc(NCCc2cc(Br)cc(CCN3C[C@H](O)[C@@H](O)[C@H](O)[C@H]3CO)c2)c([N+](=O)[O-])c1 [Compound 1140, (2R,3R,4R,5S)-1-[2-(3-{2-[(4-azido-2-nitrophenyl)amino]ethyl}-5-bromophenyl)ethyl]-2-(hydroxymethyl)piperidine-3,4,5-triol] | 153
12 | [N-]=[N+]=Nc1ccc(NCCNc2cc(Cl)cc(CCN3C[C@H](O)[C@@H](O)[C@H](O)[C@H]3CO)c2)c([N+](=O)[O-])c1 [Compound 1143, (2R,3R,4R,5S)-1-{2-[3-({2-[(4-azido-2-nitrophenyl)amino]ethyl}amino)-5-chlorophenyl]ethyl}-2-(hydroxymethyl)piperidine-3,4,5-triol] | 334
13 | OC[C@@H]1[C@@H](O)[C@H](O)[C@@H](O)CN1CCCCCCNc1ccc(-c2cnccn2)cc1Cl [Compound 1198, (2R,3R,4R,5S)-1-(6-{[2-chloro-4-(pyrazin-2-yl)phenyl]amino}hexyl)-2-(hydroxymethyl)piperidine-3,4,5-triol] | 12
14 | CS(=O)(=O)c1cc(NCCCCCCN2C[C@H](O)[C@@H](O)[C@H](O)[C@H]2CO)cc(-c2ncccn2)c1 [Compound 1128, (2R,3R,4R,5S)-2-(hydroxymethyl)-1-(6-{[3-methanesulfonyl-5-(pyrimidin-2-yl)phenyl]amino}hexyl)piperidine-3,4,5-triol] | 116
15 | [N-]=[N+]=Nc1ccc(NCc2ccc(CN3C[C@H](O)[C@@H](O)[C@H](O)[C@H]3CO)cc2)c([N+](=O)[O-])c1 [Compound 1170, (2R,3R,4R,5S)-1-[(4-{[(4-azido-2-nitrophenyl)amino]methyl}phenyl)methyl]-2-(hydroxymethyl)piperidine-3,4,5-triol] | 4
16 | COc1cc(NCCCCCCN2C[C@H](O)[C@@H](O)[C@H](O)[C@H]2CO)cc(C2CCCCC2)c1 [Compound 1148, (2R,3R,4R,5S)-1-{6-[(3-cyclohexyl-5-methoxyphenyl)amino]hexyl}-2-(hydroxymethyl)piperidine-3,4,5-triol] | 372
17 | COc1cc(NCCc2ccc(CCN3C[C@H](O)[C@@H](O)[C@H](O)[C@H]3CO)cc2)cc(-c2ccco2)c1 [Compound 1153, (2R,3R,4R,5S)-1-{2-[4-(2-{[3-(furan-2-yl)-5-methoxy-phenyl]amino}ethyl)phenyl]ethyl}-2-(hydroxymethyl)piperidine-3,4,5-triol] | 1360
